Assay [1] deals with Sweet Potato Whitefly (Bemisia tabaci, BEMITA). Description: Bioassay 2: Sweet Potato Whitefly, spray on cotton seedlings at crawler emergence, nymphs counted 7-9 days after treatment. It counts as in vivo. The essentials: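 Cotton seedlings pruned to one true leaf were colonized by adult B. tabaci for 24 h egg-laying, then sprayed once >25% crawler emergence was underway; solutions 0.001% to 0.00000001% (w/v) in acetone/water with 0.025% Tween 20. Held ~25° C; live 2-3 instar nymphs counted 7-9 days later, Abbott-corrected % control.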

Assay [2] relates to Beet Armyworm (Spodoptera exigua, LAPHEG). Description: Bioassay 6: Beet Armyworm, artificial lepidopteran diet, live larvae after 5 days. It counts as in vivo. To be noted: BAW. How it is done: where X=No. of live nymphs on solvent check and Y=No. of live nymphs on treated bean segments. In Table B5 the “Expected % Control” was calculated using the method described in Colby S. R., Weeds, 1967, 15, 20-22. Bioassay 6: Beet Armyworm (Spodoptera exigua, LAPHEG) (BAW), and Diamondback Moth (Plutella xylostella, PLUTMA) (DBM).
Stock solutions were prepared with Formula One as well as for each of the active ingredients individually. Test solutions were prepared from the stock solutions. Test solutions were prepared containing Formula One, the individual active ingredients, and mixtures of Formula One with each of the active ingredients. […]
The test solutions were tested against BAW and DBM using the following procedure: An artificial lepidopteran diet (Multispecies Lepidopteran Diet, Southland Products) was distributed in 128-cell bioassay trays (Frontier Agricultural Sciences™). […] After 5 days, the number of live larvae were recorded from each cell and percent control was measured using Abbott's correction formula (W. S. Abbott, J. Econ. Entomol. 18 (1925), pp. 265-267) as follows:
where X=No. of live larvae on solvent check and Y=No. of live larvae on treated diet. In Table B6 the “Expected % Control” was calculated using the method described in Colby S. R., Weeds, 1967, 15, 20-22. […]

As to Emamectin Benzoate, the “Average % Control AI” value in assay [1] (AI alone 0.1 (10-5) % w/v) stood at 0%; in assay [1] (AI alone 1 (10-5) % w/v) it was 5%.

Turning to `CC1(C)[C@H](C(=O)O[C@H](C#N)c2cccc(Oc3ccccc3)c2)[C@@H]1/C=C(\Cl)C(F)(F)F` (racemic) [Lambda Cyhalothrin], in assay [1] (AI alone 1 (10-5) % w/v), the “Average % Control AI” value was 27%.

`CCN(C(=O)CCS(C)(=O)=O)c1sc(-c2cccnc2)nc1Cl` [Formula F1, N-(4-chloro-2-(pyridin-3-yl)thiazol-5-yl)-N-ethyl-3-(methylsulfonyl)propanamide]: in assay [2] (F1 alone 0.4 % w/v), the “Average % Control F1” value was found to be 0%.

For `Cc1c(COC(=O)[C@@H]2[C@H](/C=C(\Cl)C(F)(F)F)C2(C)C)cccc1-c1ccccc1` (racemic) [Bifenthrin], in assay [1] (AI alone 1 (10-5) % w/v), the “Average % Control AI” value is 40%.

With Abamectin, the “Average % Control AI” value turned out to be 50% in assay [2] (AI alone, Ratio F1:AI 100:1) and 16% in assay [1] (AI alone 0.1 (10-5) % w/v).

Turning to `C/C(=N\C#N)N(C)Cc1ccc(Cl)nc1` [Acetamiprid], in assay [1] (AI alone 1 (10-5) % w/v), the “Average % Control AI” value was found to be 29%.

The record behind these values is patent US20250338846A1, “COMPOSITIONS HAVING PESTICIDAL UTILITY AND PROCESSES RELATED THERETO” (CORTEVA AGRISCIENCE, LLC, priority 2022, published 2025).
